Experimental data as given in patent US8614241B2, “Ester compound and use thereof” (Sumitomo Chemical Company, Limited, priority 2010, dated 2013).

Tested on: German cockroaches (Blattella germanica)
Test: Knock-down test by spraying oil solution on German cockroaches
Assay type: in vivo
Settings: 0.00625% (w/v) oil solution, 1.5 ml sprayed, ten adult German cockroaches (5 males, 5 females)
Method: Zero point zero zero six two five (0.00625) part of the compound of the present inventions (1) and (2) was dissolved in 10 parts of isopropyl alcohol and the solution was mixed with 89.99375 parts of deodorized kerosene to prepare a 0.00625% (w/v) oil solution.
Ten adult German cockroaches (Blattella germanica, 5 males and 5 females) were released in a test container (diameter 8.75 cm, 7.5 cm high, the bottom face is made of 16 mesh metallic wire), the inner face on which butter was applied, and the container was set at the bottom of a test chamber (bottom face: 46 cm×46 cm, height: 70 cm).
Each 1.5 ml of the oil solution of the compound of the present invention (1) and (2) was sprayed using a spray gun at a pressure of 0.4 kg/cm^2 from 60 cm higher than the upper face of the container. Thirty seconds after the spraying, the container was pulled out from the chamber. Two minutes after spraying, the number of knocked-down cockroaches was counted and a knock-down ratio was determined (repeated once). A knocked-down ratio was calculated by the following equation. Knocked-down ratio (%)=(Number of knocked-down cockroaches/Number of test cockroaches)×100 The results (2 minutes after spraying) are shown in Table 1.

Compound	Knock-down ratio (%) 2 minutes after spraying [%]
C#CCn1c(C)nn(COC(=O)[C@@H]2[C@@H](/C=C(\C#N)C=C)C2(C)C)c1=O [compound of the present invention (1), 3-methyl-5-oxo-4-(2-propynyl)-4,5-dihydro-[1,2,4]triazolylmethyl=(1R)-trans-3-[(1Z)-2-cyano-1,3-butadienyl]-2,2-dimethylcyclopropane carboxylate]	100
C#CCn1c(C)nn(COC(=O)[C@@H]2[C@@H](/C=C(C#N)/C=C/C)C2(C)C)c1=O [compound of the present invention (2), 3-methyl-5-oxo-4-(2-propynyl)-4,5-dihydro-[1,2,4]triazolylmethyl=(1R)-trans-3-[(1Z,3E)-2-cyano-1,3-pentadienyl]-2,2-dimethylcyclopropane carboxylate]	100
